Key:
TANK-2 enzyme = target: T1, TANK-2 enzyme (Homo sapiens, UniProt Q9H2K2); test: In vitro Scintillation Proximity Assay (SPA) for TANK-2 inhibitory activity; format: biochemical; conditions: read-out: in vitro SPA assay TANK-2 pIC50 (converted)
T1 construct: made in house
T1 sequence (Q9H2K2 1-1166): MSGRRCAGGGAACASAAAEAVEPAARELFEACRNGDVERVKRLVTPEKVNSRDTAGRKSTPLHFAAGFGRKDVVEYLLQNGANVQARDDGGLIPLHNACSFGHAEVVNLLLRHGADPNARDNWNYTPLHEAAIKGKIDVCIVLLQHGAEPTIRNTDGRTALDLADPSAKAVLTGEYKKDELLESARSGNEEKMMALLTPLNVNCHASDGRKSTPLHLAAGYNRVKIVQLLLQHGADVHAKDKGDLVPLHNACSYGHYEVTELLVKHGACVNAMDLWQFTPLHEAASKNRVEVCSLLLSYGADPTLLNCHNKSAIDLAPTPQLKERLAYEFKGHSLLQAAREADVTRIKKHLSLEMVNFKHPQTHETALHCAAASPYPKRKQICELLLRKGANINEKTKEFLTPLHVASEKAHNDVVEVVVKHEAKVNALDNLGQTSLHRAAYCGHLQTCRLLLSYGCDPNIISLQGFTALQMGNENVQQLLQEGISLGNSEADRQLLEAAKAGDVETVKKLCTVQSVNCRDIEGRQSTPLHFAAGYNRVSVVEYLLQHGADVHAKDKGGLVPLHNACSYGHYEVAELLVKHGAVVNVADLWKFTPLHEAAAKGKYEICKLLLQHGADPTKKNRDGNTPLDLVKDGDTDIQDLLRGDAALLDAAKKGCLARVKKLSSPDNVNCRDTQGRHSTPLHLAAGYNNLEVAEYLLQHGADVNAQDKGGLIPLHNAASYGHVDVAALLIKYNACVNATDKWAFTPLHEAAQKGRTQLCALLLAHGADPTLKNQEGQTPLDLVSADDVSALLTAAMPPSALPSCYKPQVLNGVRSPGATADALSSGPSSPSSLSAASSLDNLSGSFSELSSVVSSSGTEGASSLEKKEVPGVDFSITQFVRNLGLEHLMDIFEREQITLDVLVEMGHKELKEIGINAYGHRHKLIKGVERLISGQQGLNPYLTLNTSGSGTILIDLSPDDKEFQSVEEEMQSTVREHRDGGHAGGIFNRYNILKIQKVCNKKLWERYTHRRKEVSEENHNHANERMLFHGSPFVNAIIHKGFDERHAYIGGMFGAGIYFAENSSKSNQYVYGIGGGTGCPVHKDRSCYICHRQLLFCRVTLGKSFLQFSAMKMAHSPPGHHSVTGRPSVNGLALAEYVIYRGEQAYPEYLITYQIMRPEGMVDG
Method in brief: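 Results are pIC50 values, with IC50 interpolated linearly around 50% of blank-subtracted control cpm. They come from a scintillation proximity read of TANK-2 (8 μg/ml) self-modification with [3H]-NAD+/NAD, incubated 120 min at room temperature in pH 7.4 Tris buffer containing MgCl2 and DTT. Compounds were first screened at 10^−5 M.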

PC3 cells = test: EB1 Comet (microtubule disruption) assay; format: cell-based, human; conditions: 1 hour treatment; for minimal effective concentration: Homo sapiens, PC-3, 1 h, read-out: EB1 pLAC (converted)
Method in brief: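 Readout is loss of Eb1 plus-end foci, scored by immunofluorescence microscopy, in PC3 cells after 1 h compound treatment at 37 °C with 0.6% final DMSO. LAC is defined as the lowest concentration leaving at least 50% of cells without Eb1 foci.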

Structure (SMILES) | IC50 (TANK-2 enzyme) | melting point | minimal effective concentration (PC3 cells) | EB1 pLAC (PC3 cells)
CCc1cc2ccc([C@](C)(C#N)[C@@H](C)c3ccccc3)cc2[nH]c1=O [Compound 199] | 1260 nM | 250 °C |  | 
CCc1cc2ccc(C(C)(C#N)Cc3cccc(I)n3)cc2[nH]c1=O (stereo not drawn) [Compound 214] | 50.1 nM | 131 °C | 0.1 µM | 
CCc1c(C)c2ccc(C(C)(C#N)Cc3cccc(C#N)c3)cc2[nH]c1=O (stereo not drawn) [Compound 181] | 158 nM | 204 °C | 0.316 µM | 
CCc1cc2ccc(C(C)(C#N)C(C)c3ccccc3)cc2[nH]c1=O (stereo not drawn) [Compound 198] | 794 nM | 198 °C | 0.316 µM | 
Cc1cc2ccc([C@](C)(C#N)Cc3cccc(C#N)c3)cc2[nH]c1=O [Compound 36] | 200 nM | 226 °C | 0.316 µM | 
CCOC(=O)c1cccc(CC(C)(C#N)c2ccc3cc(CC)c(=O)[nH]c3c2)n1 (stereo not drawn) [Compound 215] | 2000 nM | 60 °C | 0.316 µM | 
C#Cc1cccc(C[C@@](C)(C#N)c2ccc3cc(CC)c(=O)[nH]c3c2)c1 [Compound 3] | 501 nM | 128 °C | 0.01 µM | 
CCc1cc2ccc(C(C)(C#N)Cc3cccc(N(C)C)n3)cc2[nH]c1=O (stereo not drawn) [Compound 213] | 126 nM | 115 °C | 0.316 µM | 
CCc1cc2ccc(C(F)(C#N)Cc3ccccc3)cc2[nH]c1=O (stereo not drawn) [Compound 187] | 316 nM | 176 °C | 5.62 µM | 
CCc1cc2ccc(C(C#N)(CC)Cc3ccccc3)cc2[nH]c1=O (stereo not drawn) [Compound 32] | 79.4 nM | 198 °C | 1 µM | 
CCc1cc2ccc(C(C)(C#N)Cc3cccc(C#N)n3)cc2[nH]c1=O (single isomer, unassigned) [Compound 206] | 50.1 nM | 121 °C |  | 
CCc1cc2ccc(C(C)(C#N)Cc3cccc(C#N)n3)cc2[nH]c1=O (single isomer, unassigned) [Compound 207] | 31.6 nM | 133 °C | 0.1 µM | 
COc1ccccc1-c1nc(CC(C)(C#N)c2ccc3cc(C)c(=O)[nH]c3c2)no1 (stereo not drawn) [Compound 33] | 158 nM | 130 °C |  | 
C=Cc1cccc(CC(C)(C#N)c2ccc3cc(CC)c(=O)[nH]c3c2)c1 (stereo not drawn) [Compound 172] | 794 nM | 130 °C | 0.1 µM | 
CCc1cc2ccc(C(C)(C#N)Cc3cccc(COC)n3)cc2[nH]c1=O (stereo not drawn) [Compound 216] | 1260 nM | 153 °C | 1 µM | 
CCc1cc2ccc(C(C)(C#N)Cc3cccc(CCC#N)c3)cc2[nH]c1=O (stereo not drawn) [Compound 169] | 398 nM | 149 °C |  | 6
C#Cc1cccc(C[C@](C)(C#N)c2ccc3cc(CC)c(=O)[nH]c3c2)c1 [Compound 2] | 398 nM | 125 °C |  | 
CC(C)c1cc2ccc(C(C)(C#N)Cc3ccccc3)cc2[nH]c1=O (stereo not drawn) [Compound 38] | 501 nM | 178 °C |  | 
Cc1cc2ccc(C(C)(C#N)Cc3cccc(Cl)c3)cc2[nH]c1=O (stereo not drawn) [Compound 37] | 79.4 nM | 242 °C | 3.16 µM | 
CC(=O)c1cc2ccc(C(C)(C#N)Cc3ccccc3)cc2[nH]c1=O (stereo not drawn) [Compound 39] | 316 nM | 194 °C |  | 
C#Cc1cccc(CC(C)(C#N)c2ccc3cc(CC)c(=O)[nH]c3c2)n1 (stereo not drawn) [Compound 211] | 398 nM | 140 °C | 0.1 µM | 
Cc1cc2ccc(C(C)(C#N)Cc3cccc(C#N)c3)cc2[nH]c1=O (stereo not drawn) [Compound 34] | 31.6 nM | 260 °C | 0.316 µM | 
CCc1cc2ccc(C(C)(C#N)Cc3cccc(CN)n3)cc2[nH]c1=O (stereo not drawn) [Compound 221] | 251 nM | 65 °C | 3.16 µM | 
CCc1cc2cc(OCCOC)c(C(C)(C#N)Cc3cccc(C#N)c3)cc2[nH]c1=O (stereo not drawn) [Compound 182] | 31.6 nM | 130 °C |  | 
CCc1cc2ccc(C(C)(C#N)Cc3cccc(C#CCO)c3)cc2[nH]c1=O (stereo not drawn) [Compound 183] | 794 nM | 182 °C | < 0.0316 µM | 
CCc1cc2cc(F)c(C(C)(C#N)Cc3cccc(C#N)c3)cc2[nH]c1=O (stereo not drawn) [Compound 175] | 100 nM | 202 °C | 1 µM | 
CCc1cc2ccc(C(C)(C#N)CN(C)Cc3ccccc3)cc2[nH]c1=O (stereo not drawn) [Compound 189] | 2510 nM | 136 °C | 1 µM | 
CCc1cc2ccc(C(C)(C#N)Cc3cc(N(C)C)nc(Cl)n3)cc2[nH]c1=O (stereo not drawn) [Compound 364] | 100 nM |  | 1 µM | 
Cc1cc2ccc([C@@](C)(C#N)Cc3cccc(C#N)c3)cc2[nH]c1=O [Compound 35] | 316 nM | 233 °C |  | 

— patent publication US8778966B2, “Quinolinone derivatives as PARP and tank inhibitors” (Janssen Pharmaceutica, NV, priority 2007, dated 2014)
